Assay results as given in article PMC8921064 (Archives of Toxicology, 2022).

Tests used:
[1] = test system: rat liver microsomes (RLM); test: Rat liver microsomal incubation, metabolite formation quantified by UPLC; settings: RLM
Protocol: (§1) The incubation mixtures were prepared and incubated in glass vials to avoid plastic binding of the substrates. The glass vials were capped to prevent substrate loss due to volatility. After preincubation of the incubation mixture at 37 °C for 1 min, the enzymatic reaction was initiated by adding microsomes to the incubation mixture which was subsequently incubated at 37 °C for 20 min. The reaction was terminated by adding 100 µl ice-cold acetonitrile followed by vortexing. After 5 min centrifugation at 5000 rpm (4000 × g), 4 °C, the supernatant was collected for ultraperformance liquid chromatography (UPLC) analysis. […] Therefore, a diisopropylether (DIPE) extraction of the metabolites was performed after the reaction was stopped by the addition of 20 µl 10% HClO4. To this end, the incubation mixture (total volume of 220 µl) was extracted three times with 1 ml DIPE. Each time, the upper organic layer was collected and the DIPE was subsequently evaporated from the combined organic fractions with a gentle stream of nitrogen. The residues were dissolved in 100 µl methanol and analyzed by UPLC.
(§2) The metabolites formed were analyzed and quantified using an Acquity UPLC system equipped with a photodiode array (PDA) detector (Waters, Milford, MA). The metabolites and their parent compound were separated on a reverse phase Acquity UPLC® BEH C18 column ([…], 1.7 µm, Waters, Milford, MA) and detected at wavelengths ranging from 190 to 400 nm. Eluent A was nano-pure water containing 0.1% trifluoroacetic acid (v/v), and eluent B was acetonitrile containing 0.1% trifluoroacetic acid (v/v). The gradient elution started from 90% A and 10% B applied from 0.0 min to 0.5 min, which was changed to 0% A and 100% B from 0.5 to 15.5 min and then kept at 0% A and 100% B from 15.5 min to 18.5 min, changed back to 90% A and 10% B from 18.5 to 18.6 min and then maintained at the starting conditions from 18.6 min until 22 min. The total run time was 22 min using a flow rate of 0.6 ml/min. The temperature of the column was set at 40 °C and that of the autosampler at 10 °C during the UPLC analysis. The injection volume was 3.5 µl. Metabolites were quantified using their peak area at the wavelength specified in Table 1, using calibration curves of available reference compounds. Metabolites were identified by comparing their retention time (RT) and UV spectrum to those of reference chemicals on UPLC. When reference chemicals were not available, metabolite identification by gas chromatography-triple quadrupole mass spectrometry (GC–MS/MS) was performed. The minor metabolites were identified by elution time and mass spectra both on UPLC and GC–MS/MS, and by comparison with available elution and spectral information from the literature.
(§3) The metabolite concentrations in the microsomal incubation mixtures as quantified by UPLC were used to calculate the rate of the enzymatic conversions in pmol/min/mg microsomal protein. The kinetic parameters KM and Vmax were obtained using a nonlinear regression curve fit applying the Michaelis Menten equation in GraphPad Prism 5 (San Diego, USA). To compare the catalytic efficiency of formation of the different metabolites the intrinsic clearance (Clint) was calculated as Vmax divided by KM.

[2] = test system: mouse skin; parameters: method as in Buening et al. [1979]; LaVoie et al. [1981]; settings: mouse skin painting; ref Buening et al. [1979]; LaVoie et al. [1981]; cited from earlier work
[3] = test system: Salmonella typhimurium TA98; test: Reverse mutation assay (Ames test), TA98; settings: for Increase in the number of revertants compared to the concurrent solvent control: TA98, presence of 5% S9-mix, 10–100 µg; for Mutagenicity (conclusion): TA98, positive if more than threefold over control; for His + revertant colonies TA98 without S9-mix: mean ± SD of 3 plates
Protocol: Six concentrations of each compound were tested in triplicate in the absence and presence of 5% (v/v) S9-mix prepared from the livers of Aroclor 1254 treated Sprague–Dawley rats. The S9-mix contained 4 mM NADP, 5.8 mM glucose-6-phosphate, 0.1 M sodium phosphate pH 7.4, 8 mM MgCl2, 33 mM KCl and 5% S9 homogenate. Fresh bacterial cultures were prepared overnight to reach 10^9 cells/ml. The following solutions were pre-incubated in a rotating incubator at 70 rpm and 37 °C, and contained either 0.5 ml S9-mix (in case of S9 presence) or 0.5 ml 0.1 M potassium phosphate pH 7.4 (in case of S9 absence), 0.1 ml of a fresh bacterial culture (10^9 cells/ml) of TA98 or TA100, […] Top agar was melted and heated to 45 °C. After preincubation, the substrate solutions were added to 3 ml of the molten top agar and mixed by vortexing and the top agar mixture was poured onto a minimal glucose agar plate. After solidification of the top agar, the plates were incubated at 37 °C for 48 h. The number of revertant colonies per plate was automatically counted with the Instem Sorcerer Colony Counter (Staffordshire, UK). In the absence of S9-mix, 2-nitrofluorene (NF) and methylmethanesulfonate (MMS) were tested as positive controls for incubations with TA98 and TA100, respectively. In the presence of S9-mix, 2-aminoanthracene (2AA) was tested as a positive control in both TA98 and TA100. DMSO was tested as a solvent control in both tester strains.

[4] = test system: Salmonella typhimurium TA100; test: Reverse mutation assay (Ames test), TA100; settings: for His + revertant colonies TA100 without S9-mix: mean ± SD of 3 plates; for Cytotoxicity at the test doses: TA100, absence of S9 mix; for Increase in the number of revertants compared to the concurrent solvent control: TA100, presence of 5% S9-mix, 10–100 µg; for Mutagenicity (conclusion): TA100, positive if more than twofold over control
Protocol: Six concentrations of each compound were tested in triplicate in the absence and presence of 5% (v/v) S9-mix prepared from the livers of Aroclor 1254 treated Sprague–Dawley rats. The S9-mix contained 4 mM NADP, 5.8 mM glucose-6-phosphate, 0.1 M sodium phosphate pH 7.4, 8 mM MgCl2, 33 mM KCl and 5% S9 homogenate. Fresh bacterial cultures were prepared overnight to reach 10^9 cells/ml. The following solutions were pre-incubated in a rotating incubator at 70 rpm and 37 °C, and contained either 0.5 ml S9-mix (in case of S9 presence) or 0.5 ml 0.1 M potassium phosphate pH 7.4 (in case of S9 absence), 0.1 ml of a fresh bacterial culture (10^9 cells/ml) of TA98 or TA100, and 10–100 µg test compound. Top agar was melted and heated to 45 °C. After preincubation, the substrate solutions were added to 3 ml of the molten top agar and mixed by vortexing and the top agar mixture was poured onto a minimal glucose agar plate. After solidification of the top agar, the plates were incubated at 37 °C for 48 h. The number of revertant colonies per plate was automatically counted with the Instem Sorcerer Colony Counter (Staffordshire, UK). In the absence of S9-mix, 2-nitrofluorene (NF) and methylmethanesulfonate (MMS) were tested as positive controls for incubations with TA98 and TA100, respectively. In the presence of S9-mix, 2-aminoanthracene (2AA) was tested as a positive control in both TA98 and TA100. DMSO was tested as a solvent control in both tester strains.

[5] = test system: human liver microsomes (HLM); test: Human liver microsomal incubation, metabolite formation quantified by UPLC; settings: HLM
Protocol: as §1, §2, §3

Cc1ccc2c(ccc3ccccc32)c1 [2-Methylphenanthrene]
Vmax, formation of 2-(Hydroxymethyl)-phennathrene RT = 5.59 min ([1]; substrate 2-Methylphenanthrene): 2174 ± 115.3 pmol/min/mg microsomal protein | Vmax, formation of 2-Methylphenanthrol RT = 6.98 min ([1]; substrate 2-Methylphenanthrene): 76.0 ± 3.1 pmol/min/mg microsomal protein | Vmax, formation of 2-Methylphenanthrol RT = 7.08 min ([1]; substrate 2-Methylphenanthrene): 11.2 ± 0.9 pmol/min/mg microsomal protein | Vmax, formation of Dihydro-2-methylphenanthrene-diol RT = 4.26 min ([1]; substrate 2-Methylphenanthrene): 23.1 ± 2.7 pmol/min/mg microsomal protein | Vmax, formation of Dihydro-2-methylphenanthrene-diol RT = 4.42 min ([1]; substrate 2-Methylphenanthrene): 16.2 ± 2.5 pmol/min/mg microsomal protein | Vmax, formation of 2-Methylphenanthrol RT = 6.12 min ([1]; substrate 2-Methylphenanthrene, KM NA): 90.7 ± 3.8 pmol/min/mg microsomal protein | Tumor-initiating activity [2]: neither phenanthrene nor its monomethylated analogs | Increase in the number of revertants compared to the concurrent solvent control [3]: 2.2 fold | Mutagenicity (conclusion) [3]: non-mutagenic | His + revertant colonies TA100 without S9-mix ([4]; 10 µg/plate): 106±20 | His + revertant colonies TA100 without S9-mix ([4]; 20 µg/plate): 98±13 | His + revertant colonies TA100 without S9-mix ([4]; 40 µg/plate): 70±8 | Cytotoxicity at the test doses [4]: showed cytotoxicity | Increase in the number of revertants compared to the concurrent solvent control [4]: no increased response was found | Mutagenicity (conclusion) [4]: non-mutagenic | Vmax, formation of 2-(Hydroxymethyl)-phennathrene RT = 5.59 min ([5]; substrate 2-Methylphenanthrene): 562.0 ± 27.5 pmol/min/mg microsomal protein | Vmax, formation of 2-Methylphenanthrol RT = 6.12 min ([5]; substrate 2-Methylphenanthrene): 16.3 ± 0.8 pmol/min/mg microsomal protein | Vmax, formation of Dihydro-2-methylphenanthrene-diol RT = 3.09 min ([5]; substrate 2-Methylphenanthrene): 6.4 ± 0.5 pmol/min/mg microsomal protein

Cc1ccc2ccc3ccccc3c2c1 [3-Methylphenanthrene]
Vmax, formation of 3-(Hydroxymethyl)-phenanthrene RT = 5.62 min ([1]; substrate 3-Methylphenanthrene): 2593 ± 305 pmol/min/mg microsomal protein | Vmax, formation of 3-Methylphennathrol RT = 6.98 min ([1]; substrate 3-Methylphenanthrene): 82.6 ± 53.8 pmol/min/mg microsomal protein | Vmax, formation of Dihydro-3-methylphenanthrene-diol RT = 4.25 min ([1]; substrate 3-Methylphenanthrene): 92.3 ± 25.1 pmol/min/mg microsomal protein | Vmax, formation of Dihydro-3-methylphenanthrene-diol RT = 4.42 min ([1]; substrate 3-Methylphenanthrene): 20.4 ± 1.7 pmol/min/mg microsomal protein | Tumor-initiating activity [2]: neither phenanthrene nor its monomethylated analogs | His + revertant colonies TA98 without S9-mix ([3]; 2 µg/plate): 16±3 | His + revertant colonies TA98 without S9-mix ([3]; 4 µg/plate): 17±4 | His + revertant colonies TA98 without S9-mix ([3]; 10 µg/plate): 14±1 | His + revertant colonies TA98 without S9-mix ([3]; 20 µg/plate): 13±2 | His + revertant colonies TA98 without S9-mix ([3]; 40 µg/plate): 9±4 | Cytotoxicity at the test doses ([3]; TA98, absence of S9 mix): showed cytotoxicity | Increase in the number of revertants compared to the concurrent solvent control [3]: 2.2 fold | Mutagenicity (conclusion) [3]: non-mutagenic | Bacterial background lawn ([3]; TA98 without S9-mix, 40 µg/plate): S | His + revertant colonies TA100 without S9-mix ([4]; 2 µg/plate): 112±14 | His + revertant colonies TA100 without S9-mix ([4]; 4 µg/plate): 112±9 | His + revertant colonies TA100 without S9-mix ([4]; 10 µg/plate): 119±11 | His + revertant colonies TA100 without S9-mix ([4]; 20 µg/plate): 83±34 | His + revertant colonies TA100 without S9-mix ([4]; 40 µg/plate): 75±4 | Cytotoxicity at the test doses [4]: showed cytotoxicity | Increase in the number of revertants compared to the concurrent solvent control [4]: no increased response was found | Mutagenicity (conclusion) [4]: non-mutagenic | Vmax, formation of 3-(Hydroxymethyl)-phenanthrene RT = 5.62 min ([5]; substrate 3-Methylphenanthrene): 583.8 ± 19.6 pmol/min/mg microsomal protein | Vmax, formation of Dihydro-3-methylphenanthrene-diol RT = 4.25 min ([5]; substrate 3-Methylphenanthrene): 65.0 ± 4.1 pmol/min/mg microsomal protein | Vmax, formation of Dihydro-3-methylphenanthrene-diol RT = 4.42 min ([5]; substrate 3-Methylphenanthrene): 12.8 ± 0.8 pmol/min/mg microsomal protein
